Data on 10 compounds can be found in ChEMBL document CHEMBL1201862, “PubChem BioAssay data set” (2004).

Structures are written as SMILES.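 In this assay, cells in 96-well plates receive the compound at five concentrations for 48 hours. Endpoints are linearly interpolated between the surrounding concentrations. GI50: concentration for 50% inhibition of growth.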 The source made the active and inactive calls. Rule as the data show it: active = GI50 up to about 1.1 µM and inactive = higher.

The GI50 is the concentration that inhibits growth by half.

Test systems include UACC-62; TK-10; UACC-257; NCI-H460; NCI/ADR-RES; K562; SK-MEL-2; MDA-MB-435; U-251; CCRF-CEM; HL-60; RXF 393; 786-0; BT-549; MDA-N; SF-295; SN12C; A549; M14; SW-620.
Common to all, as to test: DTP human tumour cell line panel, 48 h

In the case of `N#C/C(=N/Nc1[nH]cnc1C(N)=O)C(=O)Nc1ccccc1`, the GI50 was 9.18 µM (inactive) with UACC-62; 18.5 µM (inactive) in the assay with TK-10; 76.2 µM (inactive) with UACC-257; 37.6 µM (inactive) in the assay with NCI-H460; 3.45 µM (inactive) in the assay with NCI/ADR-RES; 1.52 µM (inactive) in the assay on K562. Further, the GI50 was 5.27 µM (inactive) with SK-MEL-2; 22.1 µM (inactive) in the assay on MDA-MB-435; > 100 µM (inactive) in the assay on U-251; 3.23 µM (inactive) in the assay with CCRF-CEM; 28.9 µM (inactive) in the assay with HL-60; 59.4 µM (inactive) in the assay on RXF 393. For the same compound, the GI50 was 22.8 µM (inactive) in the assay with 786-0; > 100 µM (inactive) with BT-549; 12.9 µM (inactive) in the assay on MDA-N; 17.5 µM (inactive) in the assay on SF-295; 4.71 µM (inactive) in the assay on SN12C; > 100 µM (inactive) with A549. Further, the values for the GI50 in the assay with M14 and in the assay with SW-620 were 4.99 µM (inactive) and 12.5 µM (inactive), respectively.

With `C=C1C(=O)C23CC1C[C@H](OC(C)=O)[C@H]2C1(C)C(OC(C)=O)C[C@H](O)C(C)(C)[C@H]1C(=O)[C@@H]3OC(C)=O` (stereo not given in full), the GI50 in the assay with UACC-62 is 4.86 µM (inactive); with TK-10, 2.28 µM (inactive); in the assay on UACC-257 it was 2.43 µM (inactive); with NCI-H460, 17.5 µM (inactive); with NCI/ADR-RES, 16.7 µM (inactive); in the assay on K562, 1.95 µM (inactive). Besides, the GI50 in the assay on SK-MEL-2 is 12.3 µM (inactive); with MDA-MB-435, 3.09 µM (inactive); with U-251 it was 15 µM (inactive); with CCRF-CEM, 1.41 µM (inactive); in the assay on HL-60, 2.18 µM (inactive); with RXF 393 it was 3.09 µM (inactive). Further, the GI50 with 786-0 is 3.28 µM (inactive); in the assay with BT-549, 2.84 µM (inactive); in the assay with MDA-N it was 1.69 µM (inactive); with SF-295, 17.9 µM (inactive); in the assay with SN12C it was 4.76 µM (inactive); with A549, 17.9 µM (inactive). In addition, the values for the GI50 with M14 and in the assay on SW-620 were 2.94 µM (inactive) and 1.71 µM (inactive), respectively.

On to `CCNC12CCC(C1)C(C)(C)C2=O` (stereo not given), for which the GI50 in the assay with UACC-62, in the assay with TK-10, in the assay with UACC-257, in the assay with NCI-H460, with NCI/ADR-RES and with K562 was > 100 µM (inactive) each time. Moreover, the GI50 in the assay on SK-MEL-2, in the assay with MDA-MB-435, in the assay on U-251, in the assay on CCRF-CEM, in the assay on HL-60 and in the assay with RXF 393 was > 100 µM (inactive) each time. Moreover, the GI50 in the assay with 786-0, with BT-549, in the assay on MDA-N, with SF-295, with SN12C and with A549 was > 100 µM (inactive) in each case. For the same compound, the GI50 in the assay with M14 and in the assay on SW-620 was > 100 µM (inactive) in each case.

Consider `COC(=O)c1cc(C)n(CN(Cn2nc(C(=O)OC)cc2C)c2ccccc2)n1`, for which the GI50 with UACC-62 is 15.1 µM (inactive); in the assay on TK-10, > 100 µM (inactive); in the assay on UACC-257, 33.3 µM (inactive); in the assay on NCI-H460 it was 57.9 µM (inactive); in the assay on NCI/ADR-RES, 21.2 µM (inactive); with K562, 20 µM (inactive). For the same compound, the GI50 was 36.1 µM (inactive) in the assay on SK-MEL-2; 42.9 µM (inactive) in the assay on MDA-MB-435; 39 µM (inactive) with U-251; 16 µM (inactive) with CCRF-CEM; 4.7 µM (inactive) in the assay with HL-60; 20.1 µM (inactive) in the assay with RXF 393. Also, the GI50 is 24.5 µM (inactive) with 786-0; 31 µM (inactive) with BT-549; 38.5 µM (inactive) in the assay with MDA-N; 32.8 µM (inactive) in the assay with SF-295; 55.1 µM (inactive) with SN12C; 73.3 µM (inactive) in the assay with A549. The GI50 is 32.7 µM (inactive) in the assay with M14 and 29.6 µM (inactive) in the assay on SW-620.

Consider `CC1=CCC[C@@H]2[C@@](C)(Cc3cc(O)ccc3O)[C@H](C)CC[C@@]12C`, for which the GI50 with UACC-62 was 10.5 µM (inactive); in the assay on TK-10, 9.08 µM (inactive); with UACC-257, 11.5 µM (inactive); in the assay with NCI-H460 it was 5.83 µM (inactive); in the assay with NCI/ADR-RES, 5.24 µM (inactive); with K562, 3.48 µM (inactive). Moreover, the GI50 in the assay with SK-MEL-2 was 14.5 µM (inactive); in the assay with MDA-MB-435 it was 5.2 µM (inactive); with U-251, 3.89 µM (inactive); in the assay on CCRF-CEM, 2.1 µM (inactive); in the assay on HL-60, 1.81 µM (inactive); in the assay with RXF 393 it was 6.44 µM (inactive). Besides, the GI50 is 6.49 µM (inactive) in the assay on 786-0; 5.47 µM (inactive) with BT-549; 5.53 µM (inactive) with MDA-N; 7.28 µM (inactive) in the assay with SF-295; 9.2 µM (inactive) in the assay with SN12C; 4.94 µM (inactive) in the assay with A549. Moreover, the GI50 in the assay with M14 was 4.94 µM (inactive); with SW-620, 6.52 µM (inactive).

Regarding `Cc1csc2nc(-c3ccc([N+](=O)[O-])cc3)c(/C=N/N=C(N)N)n12`, the GI50 with UACC-62 was 1.71 µM (inactive); with TK-10 it was 1.92 µM (inactive); in the assay with UACC-257, 1.91 µM (inactive); in the assay with NCI-H460 it was 1.79 µM (inactive); in the assay on NCI/ADR-RES, 6.89 µM (inactive); in the assay with K562 it was 1.81 µM (inactive). For the same compound, the GI50 is 1.43 µM (inactive) with SK-MEL-2; 1.64 µM (inactive) in the assay with MDA-MB-435; 1.8 µM (inactive) in the assay with U-251; 1.91 µM (inactive) in the assay on CCRF-CEM; 1.85 µM (inactive) in the assay on HL-60; 1.79 µM (inactive) in the assay with RXF 393. Besides, the GI50 is 1.94 µM (inactive) in the assay on 786-0; 0.189 µM (active) in the assay with BT-549; 1.8 µM (inactive) in the assay on MDA-N; 1.74 µM (inactive) in the assay on SF-295; 1.71 µM (inactive) with SN12C; 1.84 µM (inactive) with A549. The GI50 in the assay on M14 was 1.85 µM (inactive); with SW-620, 1.94 µM (inactive).

On to `CO[C@@H]1[C@@H](OC2OC(C)C(OC3CC(C)(O)C(OC(=O)CC(C)C)C(C)O3)C(N(C)C)C2O)[C@@H](CC=O)C[C@@H](C)C(=O)/C=C/C2O[C@H]2C[C@@H](C)OC(=O)C[C@H]1OC(C)=O` (stereo not given in full), for which the GI50 with UACC-62 was 21.4 µM (inactive); in the assay with TK-10, 24.9 µM (inactive); with UACC-257 it was 17.2 µM (inactive); in the assay on NCI-H460, 16.8 µM (inactive); in the assay with NCI/ADR-RES, 31 µM (inactive); with K562, 12.1 µM (inactive). The GI50 with SK-MEL-2 was 18.8 µM (inactive); with MDA-MB-435, 17.7 µM (inactive); in the assay with U-251, 16.4 µM (inactive); in the assay with CCRF-CEM it was 9.77 µM (inactive); in the assay on HL-60, 6.47 µM (inactive); in the assay with RXF 393 it was 20.7 µM (inactive). Besides, the GI50 in the assay on 786-0 was 20 µM (inactive); with BT-549 it was 17.6 µM (inactive); in the assay on MDA-N it was 15.2 µM (inactive); with SF-295, 24.7 µM (inactive); with SN12C it was 15.4 µM (inactive); with A549, 32 µM (inactive). The GI50 in the assay with M14 is 16.1 µM (inactive); with SW-620, 17.5 µM (inactive).

As for `Brc1ccc(/C(N=N/C(=N\Sc2ccccc2)c2ccc(Br)cc2)=N/Sc2ccccc2)cc1`, the GI50 in the assay on UACC-62, in the assay with TK-10, in the assay with UACC-257, in the assay on NCI-H460, in the assay on NCI/ADR-RES and with K562 was > 100 µM (inactive) in each case. The GI50 in the assay on SK-MEL-2, in the assay with MDA-MB-435, with U-251, with CCRF-CEM, in the assay on HL-60 and with RXF 393 was > 100 µM (inactive) each time. The GI50 in the assay with 786-0, in the assay with BT-549, in the assay on MDA-N, with SF-295, in the assay with SN12C and with A549 was > 100 µM (inactive) throughout. The GI50 in the assay on M14 and in the assay on SW-620 was > 100 µM (inactive) each time.

As for `CCCCCC(=O)OC[n+]1cccc(-c2c(COC(=O)NC(C)C)c(COC(=O)NC(C)C)c3n2CCC3)c1`, the GI50 with UACC-62 was 23.4 µM (inactive); with TK-10 it was > 84.1 µM (inactive); in the assay with UACC-257, > 100 µM (inactive); in the assay with NCI-H460, 16.6 µM (inactive); in the assay with NCI/ADR-RES, 49.4 µM (inactive); with K562, 37.2 µM (inactive). Besides, the GI50 with SK-MEL-2 was 26.7 µM (inactive); with MDA-MB-435, > 100 µM (inactive); in the assay on U-251, > 61.5 µM (inactive); with CCRF-CEM, 6.58 µM (inactive); in the assay with HL-60, 10.2 µM (inactive); with RXF 393 it was 26.4 µM (inactive). Moreover, the GI50 was 30.7 µM (inactive) in the assay on 786-0; 38.1 µM (inactive) in the assay on BT-549; > 100 µM (inactive) in the assay with MDA-N; 59 µM (inactive) in the assay with SF-295; 30.6 µM (inactive) with SN12C; 70.5 µM (inactive) with A549. Also, the results for the GI50 with M14 and in the assay with SW-620 were 52.1 µM (inactive) and 31.7 µM (inactive), respectively.

Take `C=CCC1(O)c2ccccc2C(=O)c2c(O)ccc(O)c21` (stereo not given): the GI50 in the assay with UACC-62 is 4.01 µM (inactive); in the assay with TK-10, 14.6 µM (inactive); in the assay with UACC-257 it was 5.3 µM (inactive); with NCI-H460, 3.52 µM (inactive); with NCI/ADR-RES, 2.12 µM (inactive); in the assay with K562 it was 11.1 µM (inactive). Moreover, the GI50 with SK-MEL-2 was 2.68 µM (inactive); in the assay with MDA-MB-435 it was 1.8 µM (inactive); with U-251, 3.97 µM (inactive); in the assay on CCRF-CEM, 11.6 µM (inactive); in the assay with HL-60, 3.06 µM (inactive); in the assay on RXF 393, 4.12 µM (inactive). The GI50 is 11.7 µM (inactive) in the assay on 786-0; 6.03 µM (inactive) with BT-549; 2.12 µM (inactive) in the assay on MDA-N; 5.07 µM (inactive) in the assay on SF-295; 11.6 µM (inactive) in the assay on SN12C; 7.55 µM (inactive) with A549. Also, the GI50 in the assay with M14 is 5.01 µM (inactive); in the assay with SW-620, 5.79 µM (inactive).
